# Reference: patent publication US9963445B2, “Chemical compounds” (SYNGENTA PARTICIPATIONS AG, priority 2013, dated 2018)
# Experiments:
# Type in all cases: in vivo
# Solanum nigrum [1] = test: Post-emergence herbicidal activity, glasshouse pot test; settings: Application post-emergence, rate 1000 g/ha, evaluated after 13 days
# Procedure: Seeds of a variety of test species were sown in standard soil in pots. After 8 days cultivation (post-emergence) under controlled conditions in a glasshouse (at 24/16° C., day/night; 14 hours light; 65% humidity), the plants were sprayed with an aqueous spray solution derived from the formulation of the technical active ingredient in acetone/water (50:50) solution containing 0.5% Tween 20 (polyoxyethelyene sorbitan monolaurate, CAS RN 9005-64-5). The test plants were then grown in a glasshouse under controlled conditions (at 24/16° C., day/night; 14 hours light; 65% humidity) and watered twice daily. After 13 days, the test was evaluated (5=total damage to plant; 0=no damage to plant).
# ABUTH=Abutilon theophrasti; SOLNI=Solanum nigrum; AMARE=Amaranthus retroflexus; SETFA=Setaria faberi; ALOMY=Alopecurus myosuroides; ECHCG=Echinochloa crus-galli, ZEAMX=zea mays.
# Echinochloa crus-galli [2] = test: as above; design: key: 0 = no damage to plant, 5 = total damage to plant; settings: Application post-emergence, rate 1000 g/ha, evaluated after 13 days
# Procedure, shortened: (§1)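 Seeds sown in standard soil in pots, grown 8 days in glasshouse (24/16 °C day/night, 14 h light, 65% humidity), then sprayed with aqueous solution from active ingredient formulated in acetone/water (50:50) with 0.5% Tween 20. Plants regrown under same conditions, watered twice daily; damage scored after 13 days (0 none–5 total).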
# zea mays [3] = test: as above; design: key: 0 = no damage to plant, 5 = total damage to plant; settings: Application post-emergence, rate 1000 g/ha, evaluated after 13 days
# Procedure, shortened: as §1
# Setaria faberi [4] = test: as above; design: key: 0 = no damage to plant, 5 = total damage to plant; settings: Application post-emergence, rate 1000 g/ha, evaluated after 13 days
# Procedure, shortened: as §1
# Alopecurus myosuroides [5] = test: as above; design: key: 0 = no damage to plant, 5 = total damage to plant; settings: Application post-emergence, rate 1000 g/ha, evaluated after 13 days
# Procedure, shortened: as §1
# Amaranthus retroflexus [6] = test: as above; design: key: 0 = no damage to plant, 5 = total damage to plant; settings: Application post-emergence, rate 1000 g/ha, evaluated after 13 days
# Procedure, shortened: as §1
# Echinochloa crus-galli [7] = test: Pre-emergence herbicidal activity, glasshouse pot test; settings: pre-emergence spray, rate 1000 g/ha, evaluated after 13 days, scale 0-5
# Procedure, shortened: (§2)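 Test species were sown in pots and, after one day under controlled glasshouse conditions, treated with an aqueous spray of the active ingredient in acetone/water containing 0.5% Tween 20. Evaluation followed 13 days later, scoring plant damage from 0 (none) to 5 (total).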
# Solanum nigrum [8] = test: as above; settings: pre-emergence spray, rate 1000 g/ha, evaluated after 13 days, scale 0-5
# Procedure, shortened: as §2
# zea mays [9] = test: as above; settings: pre-emergence spray, rate 1000 g/ha, evaluated after 13 days, scale 0-5
# Procedure, shortened: as §2
# Setaria faberi [10] = test: as above; settings: pre-emergence spray, rate 1000 g/ha, evaluated after 13 days, scale 0-5
# Procedure, shortened: as §2
# Alopecurus myosuroides [11] = test: as above; settings: pre-emergence spray, rate 1000 g/ha, evaluated after 13 days, scale 0-5
# Procedure, shortened: as §2
# Amaranthus retroflexus [12] = test: as above; settings: pre-emergence spray, rate 1000 g/ha, evaluated after 13 days, scale 0-5
# Procedure, shortened: as §2
# Abutilon theophrasti [13] = test: Post-emergence herbicidal activity, glasshouse pot test; design: key: 0 = no damage to plant, 5 = total damage to plant; settings: Application post-emergence, rate 1000 g/ha, evaluated after 13 days
# Procedure, shortened: as §1
# Abutilon theophrasti [14] = test: Pre-emergence herbicidal activity, glasshouse pot test; settings: pre-emergence spray, rate 1000 g/ha, evaluated after 13 days, scale 0-5
# Procedure, shortened: as §2
SMILES,SOLNI herbicidal damage score (Solanum nigrum [1]),ECHCG herbicidal damage score (Echinochloa crus-galli [2]),ZEAMX herbicidal damage score (zea mays [3]),SETFA herbicidal damage score (Setaria faberi [4]),ALOMY herbicidal damage score (Alopecurus myosuroides [5]),AMARE herbicidal damage score (Amaranthus retroflexus [6]),"ECHCG damage score, application pre-emergence (Echinochloa crus-galli [7])","SOLNI damage score, application pre-emergence (Solanum nigrum [8])","ZEAMX damage score, application pre-emergence (zea mays [9])","SETFA damage score, application pre-emergence (Setaria faberi [10])","ALOMY damage score, application pre-emergence (Alopecurus myosuroides [11])","AMARE damage score, application pre-emergence (Amaranthus retroflexus [12])",ABUTH herbicidal damage score (Abutilon theophrasti [13]),"ABUTH damage score, application pre-emergence (Abutilon theophrasti [14])"
CC1=C(Cl)C(=O)N(c2cc(Cl)ccn2)C1O (stereo not drawn) [AF66],5,4,2,5,4,5,2,5,0,3,2,5,,
CC1=C(Br)C(=O)N(c2ccc(C(F)(F)F)cn2)C1O (stereo not drawn) [AG2],5,5,2,5,4,5,1,4,0,4,3,5,,
CC1=C(Cl)C(=O)N(c2ccc(C)cn2)C1O (stereo not drawn) [AF69],5,5,3,5,5,5,4,5,1,4,3,5,,
CC1=C(Cl)C(=O)N(c2ccc(C(F)(F)F)cn2)C1O (stereo not drawn) [AF70],5,5,2,5,5,5,3,5,0,5,3,5,,
CC1=C(Cl)C(=O)N(c2ccc(Cl)cn2)C1O (stereo not drawn) [AF65],5,4,1,5,4,5,1,4,0,2,2,5,,
CC1=C(Cl)C(=O)N(c2ccc(F)cn2)C1O (stereo not drawn) [AF67],5,4,1,4,3,5,1,3,0,3,2,5,,
COC1=C(OC)C(O)N(c2cc(C(F)(F)F)c(C(F)(F)F)cn2)C1=O (stereo not drawn) [AK4],,5,2,3,3,5,0,,1,0,1,1,5,1
CC1=C(Cl)C(=O)N(c2cc(C(C)(C)C)ccn2)C1O (stereo not drawn) [AF36],,5,4,5,4,3,5,,2,5,4,5,5,5
CC1=C(Cl)C(=O)N(c2nccc(C(F)(F)F)c2F)C1O (stereo not drawn) [AF5],,5,4,5,5,5,4,,4,4,4,5,5,4
